Measurements as given in PubChem BioAssay AID449762 (Southern Research Specialized Biocontainment Screening …, 2010).
Inconclusive results are not listed.

Tested on: M. tuberculosis H37Rv growth inhibition, 7H9 media
Assay: M. tuberculosis growth inhibition, HTS (AID 449762);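 also: bacterial growth assessed after seven days of incubation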
Details: for IC90: measured here: IC90 growth inhibition

Row | SMILES | IC50 | IC90
1 | CC1=NOC(=O)/C1=C/c1ccc(-c2ccc(Cl)cc2)o1 | 5.22 µM | 70.3 µM
2 | O=C1N/C(=N\N=C\c2ccccn2)SC1Cc1cccc(SC(F)F)c1 (stereo unspecified) | 73.1 µM | > 100 µM
3 | Cc1ccc(-n2[nH]c(C)c(C=Nc3ccc(S(=O)(=O)Nc4nccs4)cc3)c2=O)c(C)c1 | 5.73 µM | 17 µM
4 | CC(C)(C)CC(C)(C)c1ccc(OCCOCC[N+](C)(C)Cc2ccccc2)cc1 | 26.2 µM | 30 µM
5 | Brc1ccc(N/N=C(/N=Nc2nn[nH]n2)c2ccccc2)cc1 | 14.2 µM | 22.1 µM
6 | CCOC(=O)c1ccc(N=C2S/C(=C\c3cc(C)n(-c4cccnc4)c3C)C(=O)N2C)cc1 | 96.6 µM | > 100 µM
7 | CC(Sc1nnc(NC2CCCCC2)s1)C(=O)Nc1ccc2c(c1)C(=O)c1ccccc1C2=O (stereo unspecified) | 11.5 µM | 12.6 µM
8 | Cc1cccc(C(=O)OCC(=O)N2CCc3ccccc3C2)c1O | 46.3 µM | > 100 µM
9 | C[C@]12CC[C@@H]3c4ccc(O)cc4CC[C@H]3[C@@H]1CC[C@@H]2OC(=O)CCC1CCCC1 | 6.41 µM | 10.9 µM
10 | Cc1cc(C)n2nc(/C(C#N)=C/c3ccccn3)c(C#N)c2n1 | 0.97 µM | 17.6 µM
11 | Cc1ccc(N(CCC#N)C(=O)CCl)cc1C | 0.98 µM | 4.41 µM
12 | Cc1ccc2[nH]c3c(N4CCN(Cc5ccccc5)CC4)ncnc3c2c1 | 22.3 µM | 42.6 µM
13 | CCN(CC)S(=O)(=O)c1ccc2[nH]cc(C(=O)NCCC3=CCCCC3)c(=O)c2c1 | 40.7 µM | > 100 µM
14 | COc1cc(OC)c(OC)cc1CCC(C)NCCC(c1ccccc1)c1ccccc1 (stereo unspecified) | 22.3 µM | 25 µM
15 | CCOC(=O)c1cnc(SC2CCc3ccccc3C2=O)nc1N (stereo unspecified) | 70.8 µM | 88.7 µM
16 | Cc1cc(C(=O)N/N=C\C(Br)=C\c2ccccc2)c(C)o1 | 38.5 µM | 53.8 µM
17 | COc1cc(/C=C/c2cc[n+](C)cc2)ccc1OCC(=O)Nc1ccc(Cl)c(Cl)c1 | 21.7 µM | 23.5 µM
18 | Nc1ccc(-c2nc3nc(N)nc(N)c3nc2-c2ccc(N)cc2)cc1 | 43 µM | 57.5 µM
19 | Cc1ccc2nc(=O)c(NNc3ccccc3)cnc2c1 | 16.5 µM | > 100 µM
20 | O=c1cc(O)c2sc3nc(-c4cccnc4)cc(C(F)(F)F)c3c2[nH]1 | 15.6 µM | 35.6 µM
21 | O=C(C1CC1)N1CCCC(c2ccc(Cl)cc2)=N1 | 33.1 µM | 50.2 µM
22 | CCOc1ccc(-c2nn3c(-c4ccccc4)nnc3s2)cc1 | 29.2 µM | > 100 µM
23 | CCCCN(C)CCNC(=O)c1ccc(Cn2c(=S)[nH]c3ccc(Br)cc3c2=O)cc1 | 12.2 µM | 20 µM
24 | CN(CCCNC(=O)c1cc2c(Cl)nc3ccccc3c2s1)Cc1ccccc1 | 41.1 µM | 61 µM
25 | Cc1cc(C)n(-c2nc(Nc3ccccc3C(F)(F)F)nc(-n3nc(C)cc3C)n2)n1 | 0.65 µM | 1.56 µM
26 | CCOc1ccc(Nc2cc(C)nc(-n3nc(C)cc3C)n2)cc1 | 0.7 µM | 4.77 µM

Row | SMILES | IC50 | IC90
27 | COc1cc(/C=N/n2c(-c3ccc4c(c3)NC(=O)CO4)csc2=Nc2cccc(C)c2)ccc1O | 34 µM | > 100 µM
28 | Clc1ccc(-c2cc3ccccc3nc2N2CCCC2)cc1 | 69.2 µM | > 100 µM
29 | Cc1ccc(-n2c(Cl)c(Cl)nc(Cl)c2=O)cc1 | 5.97 µM | 18.3 µM
30 | O=c1c2cc(Br)cc(Br)c2oc2nc3n(c(=O)c12)CCCS3 | 5.87 µM | 13.1 µM
31 | CCOC(=O)N/N=C(/C)c1ccc([N+](=O)[O-])o1 | 3.86 µM | 11.8 µM
32 | CN1/C(=C/C(=O)c2nc(S(C)(=O)=O)ncc2Cl)C(C)(C)c2ccccc21 | 3.21 µM | 10.7 µM
33 | CCc1nnc(NC(=O)CN2CCN(c3nc(-c4ccccc4)cs3)CC2)s1 | 45.8 µM | 52.4 µM
34 | CN(C)[C@@H]1C(=O)C(C(N)=O)=C(O)[C@@]2(O)C(=O)C3=C(O)c4c(O)cccc4[C@@](C)(O)C3C[C@@H]12 (stereo partly specified) | 5.95 µM | 15 µM
35 | Cc1cc(/C=N/n2cnnc2)c(C)n1-c1ccc(OCc2ccc(Cl)cc2Cl)cc1 | 7.25 µM | 15.8 µM
36 | CN(C(=O)c1cccc(Nc2ccc(-c3ccc4c(c3)OCCO4)nn2)c1)C1CCCCC1 | 50.8 µM | > 100 µM
37 | COc1ccc(CN(CCC(c2ccccc2)c2ccc(OC(C)C)cc2)C(=O)CCl)cc1OC (stereo unspecified) | 6.53 µM | 12.5 µM
38 | O=C(OCC(=O)N1CCCc2ccccc21)c1ccc(S(=O)(=O)C(F)F)cc1 | 24.1 µM | 38 µM
39 | Oc1ccc2ccccc2c1N=Nc1nccs1 | < 0.2 µM | 2.01 µM
40 | COCCCNC(=O)/C(C#N)=C/c1c(N2CCN(c3cccc(Cl)c3)CC2)nc2c(C)cccn2c1=O | 53.9 µM | > 100 µM
41 | CC(C)Cc1nc2oc3c(N4CCN(CCO)CC4)ncnc3c2c2c1CCCC2 | 18.3 µM | 26.1 µM
42 | Cc1cc(/C=C2\SC(=Nc3ccc(F)cc3)NC2=O)c(C)n1-c1ccc(S(N)(=O)=O)cc1 | 22.4 µM | 25.5 µM
43 | CCNc1nc(NC(C)(C)C)nc(N2CCCCC2)n1 | 99.6 µM | > 100 µM
44 | COc1ccc(-c2oc3ccc(-c4ccc(OC)nc4)cc3c2C#CC2(O)CCCCC2)cc1 | 96.2 µM | > 100 µM
45 | COc1cccc(NC(=O)C2CCN(Cc3cnn(-c4ccccc4)c3-n3cccc3)CC2)c1 | 48.4 µM | 56.2 µM
46 | Cc1nn(CCc2nn[nH]n2)c2nc(-c3ccc(Br)cc3)cc(C(F)(F)F)c12 | 4.64 µM | 10.8 µM
47 | COCCCn1c(SCc2cccc(OC)c2)nc2cc(OC)c(OC)cc2c1=N | 37 µM | 49 µM
48 | Oc1ccc(CN2CCc3ccccc3C2)c2cccnc12 | 61.5 µM | > 100 µM
49 | Cc1ccc(C(=O)Nc2cccc(C(F)(F)F)c2)cc1Nc1ncnc2nc[nH]c12 | 50 µM | > 100 µM
50 | Cc1n[nH]c(=S)n1/N=C/c1cccc(OCc2ccccc2)c1 | 75.4 µM | > 100 µM
51 | OCCCNc1cc(-c2ccnc(Nc3cccc(Cl)c3)n2)ccn1 | 20.8 µM | 45 µM
52 | O=C(COc1ccccc1)NNc1nc2ccccc2s1 | 48.4 µM | > 100 µM

Row | SMILES | IC50 | IC90
53 | Cc1ccn2c(-c3csc(NCc4ccccc4)n3)c(C)nc2c1 | 46.8 µM | 52.8 µM
54 | CCOC(=O)[C@@H]1[C@H]2COc3cc(OC)ccc3[C@H]2N2C(=O)N(c3ccc(C(F)(F)F)cc3)C(=O)[C@]12C | 5.77 µM | 6.48 µM
55 | COc1ccc(/C=N/Nc2nncn2N)cc1Br | 10.8 µM | 16.3 µM
56 | CC[C@H](C)[C@@H]1O[C@@]2(C=CC1C)CC1C[C@@H](CC=C(C)C(O[C@H]3CC(OC)C(O[C@H]4CC(OC)C(O)C(C)O4)C(C)O3)C(C)C=CC=C3CO[C@@H]4C(O)C(C)=C[C@@H](C(=O)O1)[C@]34O)O2 (stereo partly specified) | 12.7 µM | 18.1 µM
57 | CO[C@@]12[C@H](COC(N)=O)C3=C(C(=O)C(C)=C(N)C3=O)N1C[C@@H]1N[C@@H]12 | 39.6 µM | 69.5 µM
58 | Cc1ccc(Cl)cc1N1CCN(C(=O)C2CCC(=O)N(C3CCCCCC3)C2)CC1 (stereo unspecified) | 19.3 µM | 28.6 µM
59 | CCOc1ccc(NC(=O)CSc2cn[nH]n2)cc1 | 57.1 µM | > 100 µM
60 | O=[N+]([O-])c1ccc(O)c(-c2cc(C(F)(F)F)nc(-c3ccccc3)n2)c1 | 22.2 µM | 23.3 µM
61 | C1=C(c2c[nH]c3ccccc23)CCNC1 | 32.4 µM | 39.8 µM
62 | COc1ccc(CN2CCCC(C(=O)c3ccc(SC)cc3)C2)cc1Cn1cccn1 (stereo unspecified) | 23.9 µM | 26.6 µM
63 | CC(C(c1ccc2c(c1)OCO2)c1c(N)n(C)c(=O)n(C)c1=O)[N+](=O)[O-] (stereo unspecified) | 2.54 µM | 6.08 µM
64 | CCC(C)(C)c1ccc(OCCCC[n+]2ccc(C)cc2)c(C(C)(C)CC)c1 | 10.2 µM | 15 µM
65 | Cc1ccc(N2C(=O)C(F)(F)C2c2ccccc2)cc1 (stereo unspecified) | 2.79 µM | 5.46 µM
66 | Cc1ccc(C(=O)OCc2nnc(-c3ccccc3)o2)s1 | 19 µM | 33.5 µM
67 | CC(NCCCOc1cccc2ccccc12)c1ccccc1 (stereo unspecified) | 22.6 µM | 31.3 µM
68 | CNc1nc(-c2ccccn2)nnc1-c1ccccc1 | 12.1 µM | 19 µM
69 | Cc1cc(Br)ccc1NC(=O)c1cnc(N2CCN(c3ccccn3)CC2)c2ccccc12 | 1.24 µM | 3.49 µM
70 | O=[N+]([O-])c1ccc(CN2CCN(c3ccc(Cl)cc3)CC2)o1 | < 0.2 µM | < 0.2 µM
71 | Cc1[nH]n(-c2ccccc2)c(=O)c1C(C[N+](=O)[O-])c1ccccc1Cl (stereo unspecified) | 6.99 µM | 14.3 µM
72 | CCOC(=O)c1ccccc1NC(=O)COc1coc(CN2CCc3ccccc32)cc1=O | 17.9 µM | 38.2 µM
73 | Cn1nc([N+](=O)[O-])nc1Sc1ccc(C(C)(C)C)cc1 | 6.13 µM | 7.62 µM
74 | N#C/C(N=Nc1ccccc1O)=N\Nc1ccccc1O | < 0.2 µM | 1.65 µM
75 | NC(=S)NNc1ccc(Cl)c(Cl)c1 | 5.81 µM | 9.42 µM
76 | O=C(CCSc1ccccn1)c1ccccc1 | 10.2 µM | 19.1 µM
77 | Cc1noc2ncnc(Sc3ccc(Cl)cc3)c12 | 82.9 µM | > 100 µM
78 | O=C(COC(=O)C1=COCCO1)NCc1ccc(Cl)cc1 | 14.8 µM | > 100 µM
